“And” between values parts separate entries of the source, which are not always exact repeats. Equal entries are not always repeated. Where two headings read alike, the source gives them in different places.
Biological target: T1, human recombinant active HPK1 (Homo sapiens, UniProt Q92918)
T1 construct: purchased Reaction Biology Corp., Malvern, PA, USA (contract assay)
Assay: radiometric HotSpot kinase assay (33P-ATP, myelin basic protein substrate)
Format: biochemical
Settings: for inhibition at 25 µM: 25 µM compound; for inhibition at 25 µM / inhibition at 50 µM: duplicate; for inhibition at 50 µM: 50 µM compound
Experimental: The in vitro inhibitory activity of the fifteen purchased compounds against recombinant human HPK1 was evaluated using a radiometric HotSpot^TM kinase assay. The results were expressed as a percentage of the remaining kinase activity relative to its activity in negative control reactions (DMSO). […] Six hits (ISR-03, ISR-04, ISR-05, ISR-10, ISR-13, and ISR-11) were selected for IC50 value determination.
The selected compounds were purchased from ASINEX (ASINEX, Amsterdam, The Netherlands) and OTAVA lead-like (OTAVA Ltd., Vaughan, ON, Canada) via local vendors. […] In brief, this assay was performed by preparing the kinase substrate (myelin basic protein) with a concentration of 20 µM in freshly prepared base reaction buffer (20.0 mM Hepes (pH 7.5), 10.0 mM MgCl2, 1.0 mM EGTA, 0.01% Brij35, 0.02 mg/mL BSA, 0.1 mM Na3VO4, 2.0 mM DTT, and 1% DMSO). Then, the kinase enzyme was delivered into the substrate solution by gently mixing, followed by adding the tested compounds dissolved in 100% DMSO using the Echo550 liquid handler and incubated for 20 min at room temperature. Finally, the reaction was initiated by the addition of ^33P-γ-ATP with a concentration of 10.0 µM and incubated for 2 h at room temperature. The percentage of kinase activity was detected using the P81 filter-binding method. For IC50 determination, the compounds’ inhibitory activity was tested at 10 concentrations (100 µM, 33.3 µM, 11.10 µM, 3.70 µM, 1.23 µM, 0.412 µM, 0.137 µM, 45.70 nM, 15.20 nM, and 5.08 nM) in one independent experiment in duplicate mode and prepared using 3-fold serial dilutions. The percentage of remaining kinase activity in tested samples was determined first, and then Prism GraphPad software version 10.2.0 (nonlinear regression/variable slope) was used to obtain the IC50 values and curve fits.

[1] = 10 concentrations, 3-fold dilution from 100 µM, 10 µM ATP, mean ± SD where given, read-out: IC50
[2] = Prism fit table of single inhibition curve (A/B replicate), Figure 3, unit inferred, read-out: EC50 (the source's name)

T1 sequence (Q92918 whole entry): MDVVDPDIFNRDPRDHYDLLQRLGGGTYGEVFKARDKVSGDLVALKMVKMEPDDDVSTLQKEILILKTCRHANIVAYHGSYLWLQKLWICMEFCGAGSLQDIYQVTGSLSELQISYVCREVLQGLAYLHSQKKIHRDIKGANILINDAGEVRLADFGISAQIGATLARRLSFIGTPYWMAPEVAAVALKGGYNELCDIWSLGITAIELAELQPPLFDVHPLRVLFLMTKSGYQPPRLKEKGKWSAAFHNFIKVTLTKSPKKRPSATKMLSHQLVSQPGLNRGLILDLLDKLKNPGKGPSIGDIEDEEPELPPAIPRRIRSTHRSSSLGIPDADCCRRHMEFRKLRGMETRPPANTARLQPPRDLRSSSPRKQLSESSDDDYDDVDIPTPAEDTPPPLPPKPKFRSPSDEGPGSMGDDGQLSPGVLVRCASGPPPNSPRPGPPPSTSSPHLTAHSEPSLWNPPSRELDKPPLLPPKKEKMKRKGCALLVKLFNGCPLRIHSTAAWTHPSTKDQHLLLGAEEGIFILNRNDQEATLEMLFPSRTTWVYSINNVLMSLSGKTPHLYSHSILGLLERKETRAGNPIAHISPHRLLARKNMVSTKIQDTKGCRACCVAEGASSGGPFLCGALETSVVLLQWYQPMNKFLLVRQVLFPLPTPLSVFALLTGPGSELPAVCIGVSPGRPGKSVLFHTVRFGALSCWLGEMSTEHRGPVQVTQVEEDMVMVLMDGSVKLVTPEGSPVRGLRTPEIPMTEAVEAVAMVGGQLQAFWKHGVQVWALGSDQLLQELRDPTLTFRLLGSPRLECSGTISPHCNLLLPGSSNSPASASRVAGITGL

COc1ccc2[nH]c(=O)c(CNc3ccccc3NC(C)=O)cc2c1 [ISR-03]
inhibition at 25 µM (10 µM ATP): 26.6% | inhibition at 50 µM (10 µM ATP): 52.4% | IC50 [1]: 43.9 µM | IC50 [2]: 44 µM and 43.8 µM

CCCNC(=O)c1cc2c(=O)n3cccc(C)c3nc2s1 [ISR-04]
inhibition at 25 µM (10 µM ATP): 2.44% | inhibition at 50 µM (10 µM ATP): 10.1% | IC50 [1]: > 100 µM

Cc1cccn2c(=O)c3cc(C(=O)Nc4ccccc4C(N)=O)sc3nc12 [ISR-05]
inhibition at 25 µM (10 µM ATP): 0% | inhibition at 50 µM (10 µM ATP): 13.9% | IC50 [1]: 24.2 µM | IC50 [2]: 20.6 µM and 27.7 µM

From publication PMC12072202, “Identification of Novel HPK1 Hit Inhibitors: From In Silico Design to In Vitro Validation” (International Journal of Molecular Sciences, 2025)
